Experimental data reported in ChEMBL document CHEMBL5223146, “Synthesis of esters and amides of 2-aryl-1-hydroxy-4-methyl-1H-imidazole-5-carboxylic acids and study of their antiviral activity against orthopoxviruses” (Bioorg Med Chem Lett, 2023).

Assays:
Influenza A virus = test: Antiviral activity against Influenza A virus (A/California/07/2009(H1N1)) infected in MDCK cells measured after 4 days by colorimetric assay; assay type: functional, organism-based
Vaccinia virus = test: Antiviral activity against Vaccinia virus Copenhagen infected in Vero cells measured after 4 days by colorimetric assay; assay type: functional, organism-based, Orthopoxvirus vaccinia
[1] = Selectivity index, ratio of CC50 for African green monkey Vero cells to IC50 for Vaccinia virus Copenhagen infected in Vero cells; assay type: toxicity, cell-based; settings: read-out: Ratio CC50/IC50
[2] = (§1) Cytotoxicity against MDCK cells measured after 4 days by colorimetric assay; assay type: toxicity, cell-based, Canis lupus familiaris; settings: dog, MDCK cells; time 4 day
[3] = (§2) Cytotoxicity against African green monkey Vero cells measured after 4 days by colorimetric assay; assay type: toxicity, cell-based; settings: chlorocebus sabaeus, Vero cells; time 4 day
[4] = Selectivity index, ratio of CC50 for MDCK cells to IC50 for Influenza A virus (A/California/07/2009(H1N1)) infected in MDCK cells; assay type: toxicity, cell-based; settings: dog, read-out: Ratio CC50/IC50
MDCK = test: as §1; assay type: toxicity, cell-based, Canis lupus familiaris; settings: dog, mdck, 96 h; time 4 day
Vero = test: as §2; assay type: toxicity, cell-based; settings: chlorocebus sabaeus, vero, 96 h; time 4 day
[5] = Selectivity index, ratio of CC50 for African green monkey Vero cells to IC50 for Cowpox virus Grishak infected in Vero cells; assay type: toxicity, cell-based; settings: read-out: Ratio CC50/IC50
Ectromelia virus = test: Antiviral activity against ectromelia virus K-1 infected in Vero cells measured after 4 days by colorimetric assay; assay type: functional, organism-based; settings: K-1, Vero, 96 h
Cowpox virus = test: Antiviral activity against Cowpox virus Grishak infected in Vero cells measured after 4 days by colorimetric assay; assay type: functional, organism-based; settings: 96 h
[6] = Selectivity index, ratio of CC50 for African green monkey Vero cells to IC50 for ectromelia virus K-1 infected in Vero cells; assay type: toxicity, cell-based; settings: read-out: Ratio CC50/IC50
[7] = Orthopoxvirus vaccinia, Copenhagen, Vero, 96 h, read-out: IC50
[8] = Influenza A virus, A/California/07/2009(H1N1), MDCK, 96 h, read-out: IC50

Q: For `CCCCNC(=O)c1c(O)nc(-c2cccc([N+](=O)[O-])c2)n1O`, which IC50 (Influenza A virus; mdck) is on record?
A: The IC50 was “Not Active”.

Q: And the IC50 (Vaccinia virus; [7])?
A: The IC50 was 17.6 µM.

Q: What about the selectivity ratio [1] of the same compound?
A: The selectivity ratio was 9.

Q: And the CC50 at 96 h [2]?
A: Its CC50 at 96 h is > 314 µM.

Q: What about the CC50 at 96 h [3] of the same compound?
A: The CC50 at 96 h was 164 µM.

Q: For `CCOC(=O)c1c(O)nc(-c2cccc([N+](=O)[O-])c2)n1O`, which IC50 (Influenza A virus; [8]) is on record?
A: Its IC50 is 118 µM.

Q: What about the IC50 (Vaccinia virus; vero) of the same compound?
A: Its IC50 is “Not Active”.

Q: What about the selectivity ratio [4] of the same compound?
A: The selectivity ratio was 2.9.

Q: What about the CC50 at 96 h [2] of the same compound?
A: Its CC50 at 96 h is > 344 µM.

Q: What about the CC50 at 96 h [3] of the same compound?
A: The CC50 at 96 h was 375 µM.

Q: Which results are given for `CCCCNC(=O)c1c(O)nc(-c2ccccc2[N+](=O)[O-])n1O`?
A: IC50 (Influenza A virus; mdck): Not Active; IC50 (Vaccinia virus; vero): Not Active; CC50 at 96 h [2]: > 314 µM; CC50 at 96 h [3]: > 314 µM

Q: Which IC50 (Influenza A virus; mdck) does the source give for `CCCCNC(=O)c1c(O)nc(-c2ccc(C(F)(F)F)cc2)n1O` here?
A: The IC50 was “Not Active”.

Q: And the IC50 (Vaccinia virus; [7])?
A: The IC50 was 3.4 µM.

Q: What about the selectivity ratio [1] of the same compound?
A: The selectivity ratio was 8.

Q: What about the CC50 (MDCK) of the same compound?
A: Its CC50 is 12.9 µM.

Q: And the CC50 at 96 h [3]?
A: Its CC50 at 96 h is 26 µM.

Q: With `O=C(NC1CC1)c1c(O)nc(-c2ccccc2O)n1O` as the compound, how does the IC50 (Influenza A virus; mdck) read?
A: Its IC50 is “Not Active”.

Q: And the IC50 (Vaccinia virus; vero)?
A: Its IC50 is “Not Active”.

Q: What about the CC50 (MDCK) of the same compound?
A: The CC50 was > 366 µM.

Q: And the CC50 (Vero)?
A: Its CC50 is 299 µM.

Q: For `O=C(NC1CC1)c1c(O)nc(-c2ccc([N+](=O)[O-])cc2)n1O`, which IC50 (Influenza A virus; mdck) is on record?
A: Its IC50 is “Not Active”.

Q: And the selectivity ratio [5]?
A: Its selectivity ratio is 16.

Q: And the IC50 (Vaccinia virus; [7])?
A: The IC50 was 10.7 µM.

Q: And the selectivity ratio [1]?
A: Its selectivity ratio is 33.

Q: What about the IC50 (Ectromelia virus) of the same compound?
A: Its IC50 is 14.7 µM.

Q: And the CC50 at 96 h [2]?
A: The CC50 at 96 h was > 331 µM.

Q: What about the CC50 at 96 h [3] of the same compound?
A: The CC50 at 96 h was 357 µM.

Q: And the IC50 (Cowpox virus)?
A: Its IC50 is 22.1 µM.

Q: And the selectivity ratio [6]?
A: Its selectivity ratio is 24.

Q: With `O=C(NC1CC1)c1c(O)nc(-c2ccccc2)n1O` as the compound, how does the IC50 (Influenza A virus; mdck) read?
A: The IC50 was “Not Active”.

Q: What about the IC50 (Vaccinia virus; vero) of the same compound?
A: The IC50 was “Not Active”.

Q: What about the CC50 at 96 h [2] of the same compound?
A: The CC50 at 96 h was > 389 µM.

Q: And the CC50 at 96 h [3]?
A: Its CC50 at 96 h is > 389 µM.

Q: Which results are given for `CCOC(=O)c1c(O)nc(-c2ccccc2)n1O`?
A: IC50 (Influenza A virus; [8]): 213 µM; IC50 (Vaccinia virus; vero): Not Active; selectivity ratio [4]: 1.9; CC50 at 96 h [2]: > 406 µM; CC50 at 96 h [3]: 172 µM

Q: What does the source list for `Nc1ccn(C[C@@H](CO)OCP(=O)(O)O)c(=O)n1` [CIDOFOVIR]?
A: selectivity ratio [5]: 21; IC50 (Vaccinia virus; [7]): 32.5 µM; selectivity ratio [1]: 30; IC50 (Ectromelia virus): 34 µM; CC50 (Vero): 989 µM; IC50 (Cowpox virus): 46.4 µM; selectivity ratio [6]: 29

Q: With `O=C(NC1CC1)c1c(O)nc(-c2cccc([N+](=O)[O-])c2)n1O` as the compound, how does the IC50 (Influenza A virus; mdck) read?
A: Its IC50 is “Not Active”.

Q: What about the IC50 (Vaccinia virus; vero) of the same compound?
A: Its IC50 is “Not Active”.

Q: What about the CC50 at 96 h [2] of the same compound?
A: The CC50 at 96 h was > 331 µM.

Q: What about the CC50 at 96 h [3] of the same compound?
A: Its CC50 at 96 h is 261 µM.

Q: Which IC50 (Influenza A virus; mdck) does the source give for `CCCCNC(=O)c1c(O)nc(-c2ccccc2)n1O` here?
A: The IC50 was “Not Active”.

Q: What about the IC50 (Vaccinia virus; [7]) of the same compound?
A: The IC50 was 73.4 µM.

Q: And the selectivity ratio [1]?
A: Its selectivity ratio is 6.

Q: What about the CC50 at 96 h [2] of the same compound?
A: Its CC50 at 96 h is > 366 µM.

Q: What about the CC50 at 96 h [3] of the same compound?
A: The CC50 at 96 h was 436 µM.

Q: For `O=C(NNC(=O)C1C2C=CC(C3CC23)C1C(=O)O)c1ccc(C(F)(F)F)cc1` (centres undefined), which selectivity ratio [5] is on record?
A: The selectivity ratio was 58.8.

Q: And the IC50 (Vaccinia virus; [7])?
A: The IC50 was 0.0076 µM.

Q: And the selectivity ratio [1]?
A: Its selectivity ratio is 157.

Q: And the IC50 (Ectromelia virus)?
A: The IC50 was 0.0076 µM.

Q: And the CC50 (Vero)?
A: Its CC50 is 1190 µM.

Q: And the IC50 (Cowpox virus)?
A: Its IC50 is 0.0203 µM.

Q: And the selectivity ratio [6]?
A: Its selectivity ratio is 157.

Q: With `CCOC(=O)c1c(O)nc(-c2ccccc2[N+](=O)[O-])n1O` as the compound, how does the IC50 (Influenza A virus; mdck) read?
A: The IC50 was “Not Active”.

Q: What about the IC50 (Vaccinia virus; vero) of the same compound?
A: Its IC50 is “Not Active”.

Q: What about the CC50 at 96 h [2] of the same compound?
A: The CC50 at 96 h was > 344 µM.

Q: And the CC50 at 96 h [3]?
A: The CC50 at 96 h was 343 µM.

Q: Which IC50 (Influenza A virus; mdck) does the source give for `CCOC(=O)c1c(O)nc(-c2ccc(C(F)(F)F)cc2)n1O` here?
A: Its IC50 is “Not Active”.

Q: And the selectivity ratio [5]?
A: Its selectivity ratio is 32.

Q: What about the IC50 (Vaccinia virus; [7]) of the same compound?
A: Its IC50 is 0.35 µM.

Q: What about the selectivity ratio [1] of the same compound?
A: Its selectivity ratio is 919.

Q: What about the IC50 (Ectromelia virus) of the same compound?
A: Its IC50 is 6.75 µM.

Q: And the CC50 at 96 h [2]?
A: Its CC50 at 96 h is > 318 µM.

Q: What about the CC50 at 96 h [3] of the same compound?
A: The CC50 at 96 h was 322 µM.

Q: And the IC50 (Cowpox virus)?
A: Its IC50 is 10 µM.

Q: And the selectivity ratio [6]?
A: The selectivity ratio was 46.

Q: What does the source list for `CCCCNC(=O)c1c(O)nc(-c2ccccc2O)n1O`?
A: IC50 (Influenza A virus; mdck): Not Active; IC50 (Vaccinia virus; [7]): 15 µM; selectivity ratio [1]: 13; CC50 at 96 h [2]: 42.9 µM; CC50 at 96 h [3]: 197 µM

Q: Which IC50 (Influenza A virus; [8]) does the source give for `CCOC(=O)c1c(O)nc(-c2ccc([N+](=O)[O-])cc2)n1O` here?
A: The IC50 was 188 µM.

Q: What about the selectivity ratio [5] of the same compound?
A: Its selectivity ratio is 14.

Q: And the IC50 (Vaccinia virus; [7])?
A: Its IC50 is 0.45 µM.

Q: And the selectivity ratio [4]?
A: Its selectivity ratio is 1.8.

Q: And the selectivity ratio [1]?
A: Its selectivity ratio is 102.

Q: And the IC50 (Ectromelia virus)?
A: Its IC50 is 1.07 µM.

Q: And the CC50 at 96 h [2]?
A: The CC50 at 96 h was > 344 µM.

Q: And the CC50 at 96 h [3]?
A: Its CC50 at 96 h is 45.7 µM.

Q: What about the IC50 (Cowpox virus) of the same compound?
A: The IC50 was 3.23 µM.

Q: And the selectivity ratio [6]?
A: The selectivity ratio was 43.

Q: Which results are given for `O=C(NC1CC1)c1c(O)nc(-c2ccccc2[N+](=O)[O-])n1O`?
A: IC50 (Influenza A virus; mdck): Not Active; IC50 (Vaccinia virus; vero): Not Active; CC50 at 96 h [2]: > 331 µM; CC50 at 96 h [3]: > 331 µM

Q: Which IC50 (Influenza A virus; mdck) does the source give for `CCCCNC(=O)c1c(O)nc(-c2ccc([N+](=O)[O-])cc2)n1O` here?
A: The IC50 was “Not Active”.

Q: And the selectivity ratio [5]?
A: Its selectivity ratio is 16.

Q: And the IC50 (Vaccinia virus; [7])?
A: The IC50 was 3.02 µM.

Q: What about the selectivity ratio [1] of the same compound?
A: The selectivity ratio was 66.

Q: And the IC50 (Ectromelia virus)?
A: The IC50 was 8.9 µM.

Q: What about the CC50 at 96 h [2] of the same compound?
A: Its CC50 at 96 h is 27.2 µM.

Q: And the CC50 at 96 h [3]?
A: Its CC50 at 96 h is 201 µM.

Q: What about the IC50 (Cowpox virus) of the same compound?
A: The IC50 was 12.3 µM.

Q: And the selectivity ratio [6]?
A: Its selectivity ratio is 23.

Q: What does the source list for `O=C(NC1CC1)c1c(O)nc(-c2ccc(C(F)(F)F)cc2)n1O`?
A: IC50 (Influenza A virus; mdck): Not Active; IC50 (Vaccinia virus; [7]): 20.6 µM; selectivity ratio [1]: 10; CC50 at 96 h [2]: > 308 µM; CC50 at 96 h [3]: 202 µM

Q: Which results are given for `CCOC(=O)c1c(O)nc(-c2ccccc2O)n1O`?
A: IC50 (Influenza A virus; mdck): Not Active; selectivity ratio [5]: 58; IC50 (Vaccinia virus; [7]): 15.5 µM; selectivity ratio [1]: 117; IC50 (Ectromelia virus): 23.6 µM; CC50 at 96 h [2]: > 382 µM; CC50 at 96 h [3]: 1830 µM; IC50 (Cowpox virus): 31.4 µM; selectivity ratio [6]: 77
